Data as given in US11084800B2 (Achillion Pharmaceuticals, Inc., priority 2017, dated 2021).

The molecules below were run against Human Factor D (Homo sapiens (Human), UniProt P00746) (assay: Human Factor D Assay). Conditions: Factor D inhibition, assay of Example 10; read-out: IC5 (Stars).
Assay type: biochemical
In short: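 Serum-purified Factor D (80 nM final) preincubated 5 min at room temperature with compound in 50 mM Tris, 1 M NaCl, pH 7.5. Z-L-Lys-SBz and DTNB added at 100 μM each; A405 followed every 30 s for 30 min. IC50 from nonlinear regression of rates versus concentration.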

Sequence of Human Factor D (P00746 26-253): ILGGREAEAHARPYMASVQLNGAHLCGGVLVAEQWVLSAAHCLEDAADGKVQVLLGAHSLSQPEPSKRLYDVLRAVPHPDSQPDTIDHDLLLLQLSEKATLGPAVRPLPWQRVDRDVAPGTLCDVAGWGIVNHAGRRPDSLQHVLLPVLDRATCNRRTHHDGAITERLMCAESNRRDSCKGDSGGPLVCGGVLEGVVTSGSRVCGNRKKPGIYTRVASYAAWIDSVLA

| SMILES | IC50 [µM] |
| --- | --- |
| CC(=O)c1nn(CC(=O)N2[C@H](C(=O)Nc3nc(Br)ccc3C)C[C@@]3(C)C[C@@H]23)c2c(C(F)CF)cc(-c3cnc(C)nc3)cc12 (stereo partly drawn) [Compound 237, (1R,3S,5R)-2-(2-(3-acetyl-7-(1,2-difluoroethyl)-5-(2-methylpyrimidin-5-yl)-1H-indazol-1-yl)acetyl)-N-(6-bromo-3-methylpyridin-2-yl)-5-methyl-2-azabicyclo[3.1.0]hexane-3-carboxamide] | < 1 |
| CC(=O)c1nn(CC(=O)N2[C@H](C(=O)Nc3nc(Br)ccc3C)C[C@@]3(C)C[C@@H]23)c2c(C(O)CF)cc(-c3cnc(C)nc3)cc12 (stereo partly drawn) [Compound 238, (1R,3S,5R)-2-(2-(3-acetyl-7-(2-fluoro-1-hydroxyethyl)-5-(2-methylpyrimidin-5-yl)-1H-indazol-1-yl)acetyl)-N-(6-bromo-3-methylpyridin-2-yl)-5-methyl-2-azabicyclo[3.1.0]hexane-3-carboxamide] | < 1 |
| CC(=O)c1nn(CC(=O)N2C[C@H]3C[C@H]3[C@H]2C(=O)Nc2nc(Br)ccc2C)c2c(C)nc(-c3cnc(C)nc3)cc12 [Compound 241, (1R,2S,5S)-3-(2-(3-acetyl-7-methyl-5-(2-methylpyrimidin-5-yl)-1H-pyrazolo[3,4-c]pyridin-1-yl)acetyl)-N-(6-bromo-3-methylpyridin-2-yl)-3-azabicyclo[3.1.0]hexane-2-carboxamide] | < 1 |
| CC(=O)c1nn(CC(=O)N2[C@H](C(=O)Nc3nc(Br)ccc3C)C[C@@]3(CN4C[C@H]5CCC[C@H]5C4)C[C@@H]23)c2cnc(-c3cnc(C)nc3)cc12 [Compound 245, (1R,3S,5R)-2-(2-(3-acetyl-5-(2-methylpyrimidin-5-yl)-1H-pyrazolo[3,4-c]pyridin-1-yl)acetyl)-N-(6-bromo-3-methylpyridin-2-yl)-5-(((3aR,6a5)-hexahydrocyclopenta [c]pyrrol-2(1H)-yl)methyl)-2-azabicyclo[3.1.0]hexane-3-carboxamide] | < 1 |

The next lines start with the values.

| IC50 [µM] | SMILES |
| --- | --- |
| 1 to 10 | CC(=O)c1nn(CC(=O)N2[C@H]3C[C@@]3(CC#N)C[C@H]2C(=O)Nc2nc(Br)ccc2C)c2cnc(-c3cnc(C)nc3)cc12 [Compound 239, (1S,3S,5S)-2-(2-(3-acetyl-5-(2-methylpyrimidin-5-yl)-1H-pyrazolo[3,4-c]pyridin-1-yl)acetyl)-N-(6-bromo-3-methylpyridin-2-yl)-5-(cyanomethyl)-2-azabicyclo[3.1.0]hexane-3-carboxamide] |
| 1 to 10 | CC(=O)c1nn(CC(=O)N2[C@@H](C(=O)Nc3nc(Br)ccc3C)C[C@]3(CC#N)C[C@H]23)c2cnc(-c3cnc(C)nc3)cc12 [Compound 240, (1S,3R,5S)-2-(2-(3-acetyl-5-(2-methylpyrimidin-5-yl)-1H-pyrazolo[3,4-c]pyridin-1-yl)acetyl)-N-(6-bromo-3-methylpyridin-2-yl)-5-(cyanomethyl)-2-azabicyclo[3.1.0]hexane-3-carboxamide] |
| < 1 | CC(=O)c1nn(CC(=O)N2[C@H](C(=O)Nc3nc(Br)ccc3C)C[C@@]3(CN4CC5(CCCC5)C4)C[C@@H]23)c2cnc(-c3cnc(C)nc3)cc12 [Compound 246, (1R,3S,5R)-5-(2-azaspiro[3.4]octan-2-ylmethyl)-2-(2-(3-acetyl-5-(2-methylpyrimidin-5-yl)-1H-pyrazolo[3,4-c]pyridin-1-yl)acetyl)-N-(6-bromo-3-methylpyridin-2-yl)-2-azabicyclo[3.1.0]hexane-3-carboxamide] |
| < 1 | CC(=O)c1nn(CC(=O)N2[C@H](C(=O)Nc3nc(Br)c(F)cc3C)C[C@@]3(CC#N)C[C@@H]23)c2cnc(-c3cnc(C)nc3)cc12 [Compound 249, (1R,3S,5R)-2-(2-(3-acetyl-5-(2-methylpyrimidin-5-yl)-1H-pyrazolo[3,4-c]pyridin-1-yl)acetyl)-N-(6-bromo-5-fluoro-3-methylpyridin-2-yl)-5-(cyanomethyl)-2-azabicyclo[3.1.0]hexane-3-carboxamide] |

Same assay, conditions: Table 6; Factor D 80 nM, substrate Z-L-Lys-SBz; read-out: IC50

| SMILES | IC50 [µM] |
| --- | --- |
| CC(=O)c1nn(CC(=O)N2[C@H](C(=O)Nc3nc(Br)ccc3C)C[C@@]3(C)C[C@@H]23)c2c(C)cc(-c3cnc(OC4COC4)nc3)cc12 [Compound 208, (1R,3S,5R)-2-(2-(3-acetyl-7-methyl-5-(2-(oxetan-3-yloxy)pyrimidin-5-yl)-1H-indazol-1-yl)acetyl)-N-(6-bromo-3-methylpyridin-2-yl)-5-methyl-2-azabicyclo[3.1.0]hexane-3-carboxamide] | < 1 |
| CC(=O)c1nn(CC(=O)N2[C@H](C(=O)Nc3nc(Br)ccc3C)C[C@@]3(C)C[C@@H]23)c2c(C)cc(-c3cnc(C)nc3)nc12 [Compound 210, (1R,3S,5R)-2-(2-(3-acetyl-7-methyl-5-(2-methylpyrimidin-5-yl)-1H-pyrazolo[4,3-b]pyridin-1-yl)acetyl)-N-(6-bromo-3-methylpyridin-2-yl)-5-methyl-2-azabicyclo[3.1.0]hexane-3-carboxamide] | > 10 |
| NC(=O)c1cc(-c2cccnc2)n(CC(=O)N2C[C@H](F)C[C@H]2C(=O)Nc2cccc(Br)n2)n1 [Compound 211, 1-(2-((2S,4R)-2-((6-Bromopyridin-2-yl)carbamoyl)-4-fluoropyrrolidin-1-yl)-2-oxoethyl)-5-(pyridin-3-yl)-1H-pyrazole-3-carboxamide] | < 1 |
| Cc1ccc(Br)nc1NC(=O)[C@@H]1C[C@@]2(C)C[C@H]2N1C(=O)Cn1nc(C(N)=O)cc1-c1ccco1 [Compound 212, (1R,3S,5R)—N-(6-Bromo-3-methylpyridin-2-yl)-2-(2-(3-carbamoyl-5-(furan-2-yl)-1H-pyrazol-1-yl)acetyl)-5-methyl-2-azabicyclo[3.1.0]hexane-3-carboxamide] | < 1 |
| Cc1ccc(Br)nc1NC(=O)[C@@H]1C[C@@]2(C)C[C@H]2N1C(=O)Cn1nc(-c2ccco2)cc1C(N)=O [Compound 213, (1R,3S,5R)—N-(6-Bromo-3-methylpyridin-2-yl)-2-(2-(5-carbamoyl-3-(furan-2-yl)-1H-pyrazol-1-yl)acetyl)-5-methyl-2-azabicyclo[3.1.0]hexane-3-carboxamide] | 1 to 10 |
| Cc1ncc(-c2cc(C(N)=O)nn2CC(=O)N2C[C@H](F)C[C@H]2C(=O)Nc2cccc(Br)n2)cn1 [Compound 215, 1-(2-((2S,4R)-2-((6-Bromopyridin-2-yl)carbamoyl)-4-fluoropyrrolidin-1-yl)-2-oxoethyl)-5-(2-methylpyrimidin-5-yl)-1H-pyrazole-3-carboxamide] | > 10 |

Other lines, results leading:

| IC50 [µM] | SMILES |
| --- | --- |
| < 1 | CC(=O)c1nn(CC(=O)N2[C@H](C(=O)Nc3nc(Br)c(F)cc3C)C[C@@]3(C)C[C@@H]23)c2c(C)nc(-c3cnc(C)nc3)cc12 [Compound 209, (1R,3S,5R)-2-(2-(3-acetyl-7-methyl-5-(2-methylpyrimidin-5-yl)-1H-pyrazolo[3,4-c]pyridin-1-yl)acetyl)-N-(6-bromo-5-fluoro-3-methylpyridin-2-yl)-5-methyl-2-azabicyclo[3.1.0]hexane-3-carboxamide] |
| < 1 | Cc1ccc(Br)nc1NC(=O)[C@@H]1C[C@@]2(C)C[C@H]2N1C(=O)Cn1nc(C(N)=O)cc1-c1cccs1 [Compound 214, (1R,3S,5R)—N-(6-Bromo-3-methylpyridin-2-yl)-2-(2-(3-carbamoyl-5-(thiophen-2-yl)-1H-pyrazol-1-yl)acetyl)-5-methyl-2-azabicyclo[3.1.0]hexane-3-carboxamide] |
| > 10 | CC(=O)c1c2cc(-c3cnc(C)nc3)cc(C(F)(F)F)c2nn1CC(=O)N1[C@H](C(=O)Nc2nc(Br)ccc2C)C[C@@]2(C)C[C@@H]12 [Compound 217, (1R,3S,5R)-2-(2-(3-acetyl-5-(2-methylpyrimidin-5-yl)-7-(trifluoromethyl)-2H-indazol-2-yl)acetyl)-N-(6-bromo-3-methylpyridin-2-yl)-5-methyl-2-azabicyclo[3.1.0]hexane-3-carboxamide] |
| < 1 | CC(=O)c1nn(CC(=O)N2[C@H](C(=O)Nc3nc(Br)ccc3C)C[C@@]3(C)C[C@@H]23)c2cnc(-c3cnc4cc(C)nn4c3)cc12 [Compound 219, (1R,3S,5R)-2-(2-(3-acetyl-5-(2-methylpyrazolo[1,5-a]pyrimidin-6-yl)-1H-pyrazolo[3,4-c]pyridin-1-yl)acetyl)-N-(6-bromo-3-methylpyridin-2-yl)-5-methyl-2-azabicyclo[3.1.0]hexane-3-carboxamide] |

Same assay, conditions: Table 8; Factor D 80 nM, substrate Z-L-Lys-SBz; read-out: IC50

| SMILES | IC50 [µM] |
| --- | --- |
| CC(=O)c1nn(CC(=O)N2[C@H](C(=O)Nc3nc(Br)ccc3C)C[C@@]3(C)C[C@@H]23)c2c(-c3nn[nH]n3)cc(-c3cnc(C)nc3)cc12 [Compound 236, (1R,3S,5R)-2-(2-(3-acetyl-5-(2-methylpyrimidin-5-yl)-7-(2H-tetrazol-5-yl)-1H-indazol-1-yl)acetyl)-N-(6-bromo-3-methylpyridin-2-yl)-5-methyl-2-azabicyclo[3.1.0]hexane-3-carboxamide] | < 1 |
| CC(=O)c1nn(CC(=O)N2[C@H](C(=O)Nc3nc(Br)ccc3C)C[C@@]3(C)C[C@@H]23)c2ccc(-c3cnc(CNC(=O)COCCOCCNC(=O)COCCOCCNC(=O)CC[C@H](NC(=O)CCCCCCCCCCCCCCCCC(=O)O)C(=O)O)nc3)cc12 [Compound 242] | < 1 |
| CC(=O)c1nn(CC(=O)N2C[C@@]3(CC(c4ccccc4)=NO3)C[C@H]2C(=O)Nc2nc(Br)ccc2C)c2c(C)cc(-c3cnc(C)nc3)cc12 [Compound 243, (5S,8S)-7-(2-(3-acetyl-7-methyl-5-(2-methylpyrimidin-5-yl)-1H-indazol-1-yl)acetyl)-N-(6-bromo-3-methylpyridin-2-yl)-3-phenyl-1-oxa-2,7-diazaspiro[4.4]non-2-ene-8-carboxamide] | 1 to 10 |
| CC(=O)c1nn(CC(=O)N2CC3(CC(C4CCCCC4)=NO3)C[C@H]2C(=O)Nc2nc(Br)ccc2C)c2c(C)cc(-c3cnc(C)nc3)cc12 (stereo partly drawn) [Compound 244, (8S)-7-(2-(3-acetyl-7-methyl-5-(2-methylpyrimidin-5-yl)-1H-indazol-1-yl)acetyl)-N-(6-bromo-3-methylpyridin-2-yl)-3-cyclohexyl-1-oxa-2,7-diazaspiro[4.4]non-2-ene-8-carboxamide] | < 1 |
